Reference: patent US11946094B2, “Combination therapies and methods of use thereof” (Augusta University Research Institute, Inc., priority 2017, dated 2024)
Where two headings read alike, the source gives them in different places.

System: OVCAR-8 cells
Test: Drug-siRNA combination screen: 346-compound anticancer library at 100 nM, CCK-8 viability
Conditions: for synergy / antagonism of drug with gene knockdowns, in words: panel of 18 siRNA knockdowns
[1] = OVCAR-8, drug 100 nM plus siRNA knockdown of each of 18 genes, distance VAB−VA×VB in SD, single gene contributes at most +5 / −5, negative = synergy, positive = antagonism
[2] = OVCAR-8, drug 100 nM, siRNA knockdown

Compound | Score (sum of observed SD values for 18 genes) [1] [SD] | other results
COc1cc2ncnc(Nc3ccc(F)c(Cl)c3)c2cc1NC(=O)/C=C/CN1CCCCC1 [Dacomitinib] | -68.29 | number of genes (of 18) with high synergy with the drug [2]: 15 genes
CCC(CC)CC1(C(=O)Nc2ccccc2SC(=O)C(C)C)CCCCC1 [Dalcetrapid] | −31.1 | 
CO[C@@H](C(=O)N1Cc2n[nH]c(NC(=O)c3ccc(N4CCN(C)CC4)cc3)c2C1)c1ccccc1 [Danusertib] | −2.99 | 
CCOc1ccc(Cc2cc([C@@H]3O[C@H](CO)[C@@H](O)[C@H](O)[C@H]3O)ccc2Cl)cc1 [Dapagliflozin] | −15.72 | 
CC(=O)OCC(=O)[C@@]1(O)[C@H](C)C[C@H]2[C@@H]3CCC4=CC(=O)C=C[C@]4(C)[C@@]3(F)[C@@H](O)C[C@@]21C [Dexamethasone Acetate] | 6.26 | 
C[C@@H]1C[C@H]2[C@@H]3CCC4=CC(=O)C=C[C@]4(C)[C@@]3(F)[C@@H](O)C[C@]2(C)[C@@]1(O)C(=O)CO [Dexamethasone] | −3.28 | 
O=S(=O)([O-])CCSSCCS(=O)(=O)[O-].[Na+].[Na+] [Dimesna] | −2.17 | 
CCN(CC)C(=S)SSC(=S)N(CC)CC [Disulfiram] | 37.83 | 
Cc1ccc(-n2nc(C(C)(C)C)cc2NC(=O)Nc2ccc(OCCN3CCOCC3)c3ccccc23)cc1 [Doramapimod] | -50.99 | number of genes (of 18) whose knockdown synergizes with the drug [2]: 11 genes
CCN[C@H]1C[C@H](C)S(=O)(=O)c2sc(S(N)(=O)=O)cc21.Cl [Dorzolamide HCI] | 9.66 | 
CN1CCN(c2ccc3nc(-c4c(N)c5c(F)cccc5[nH]c4=O)[nH]c3c2)CC1 [Dovitinib] | −22.96 | 
C=C1/C(=C\C=C2/CCC[C@]3(C)[C@@H]([C@H](C)/C=C/[C@H](C)C(C)C)CC[C@@H]23)C[C@@H](O)C[C@@H]1O [Doxercalciferol] | −0.53 | 
COc1cccc2c1C(=O)c1c(O)c3c(c(O)c1C2=O)C[C@@](O)(C(=O)CO)C[C@@H]3O[C@H]1C[C@H](N)[C@H](O)[C@H](C)O1 [Doxorubicin] | 15.09 | 
Cc1cc(Nc2cc(N3CCN(C)CC3)nc(/C=C/c3ccccc3)n2)n[nH]1 [ENMD-2076] | −47.04 | synergy / antagonism of drug with gene knockdowns, in words (OVCAR-8, drug 100 nM): significant synergy
NC(=O)C1CCCc2c1[nH]c1ccc(Cl)cc21 (stereo not drawn) [EX 527] | −22.45 | 
CN(NC(=O)CC(=O)NN(C)C(=S)c1ccccc1)C(=S)c1ccccc1 [Elesclomol] | 11.26 | 
Nc1ccccc1NC(=O)c1ccc(CNC(=O)OCc2cccnc2)cc1 [Entinostat] | 12.38 | synergy / antagonism of drug with gene knockdowns, in words (OVCAR-8, drug 100 nM): frequently antagonized by knockdown of specific genes
CNC(=O)c1ccc(N2C(=S)N(c3ccc(C#N)c(C(F)(F)F)c3)C(=O)C2(C)C)cc1F [Enzalutamid] |  | Score (sum of observed SD values for 18 genes): −1.24 SD
Cn1cc(C2=C(c3cn(C4CCN(Cc5ccccn5)CC4)c4ccccc34)C(=O)NC2=O)c2ccccc21 [Enzastaurin] | −6.53 | 
O=C(O[C@@H]1Cc2c(O)cc(O)cc2O[C@@H]1c1cc(O)c(O)c(O)c1)c1cc(O)c(O)c(O)c1 [Epigallocatechin gallate] | 3.64 | 

Compound | Score (sum of observed SD values for 18 genes) [1] [SD] | other results
C/C(=C\c1csc(C)n1)[C@@H]1C[C@@H]2O[C@@H]2CCC[C@H](C)[C@H](O)[C@@H](C)C(=O)C(C)(C)[C@@H](O)CC(=O)O1 [Epothilone A] | 16.97 | 
C/C(=C\c1csc(C)n1)[C@@H]1C[C@@H]2O[C@]2(C)CCC[C@H](C)[C@H](O)[C@@H](C)C(=O)C(C)(C)[C@@H](O)CC(=O)O1 [Epothilone B] | 17.57 | 
Cc1c(C(=O)Nc2ccc(N3C[C@@H](C)O[C@@H](C)C3)nc2)cccc1-c1ccc(OC(F)(F)F)cc1 [Erismodegib] | 3.22 | 
C[C@]12CC[C@@H]3c4ccc(O)cc4CC[C@H]3[C@@H]1CC[C@@H]2O [Estradiol] | −26.58 | 
C[C@]12CC[C@@H]3c4ccc(O)cc4CC[C@H]3[C@@H]1CCC2=O [Estrone] | −21.19 | 
CO[C@H]1C[C@@H]2CC[C@@H](C)[C@@](O)(O2)C(=O)C(=O)N2CCCC[C@H]2C(=O)O[C@H]([C@H](C)C[C@@H]2CC[C@@H](OCCO)[C@H](OC)C2)CC(=O)[C@H](C)/C=C(\C)[C@@H](O)[C@@H](OC)C(=O)[C@H](C)C[C@H](C)/C=C/C=C/C=C/1C [Everolimus] |  | number of genes (of 18) whose knockdown synergizes with the drug [2]: 14 genes
O=C1[C@H](CC[C@H](O)c2ccc(F)cc2)[C@@H](c2ccc(O)cc2)N1c1ccc(F)cc1 [Ezetimibe] | −5.31 | 
Cc1nc(-c2ccc(OCC(C)C)c(C#N)c2)sc1C(=O)O [Febuxostat] | −18.04 | 
Cc1cnc(Nc2ccc(OCCN3CCCC3)cc2)nc1Nc1cccc(S(=O)(=O)NC(C)(C)C)c1 [Fedratinib] | 56.68 | 
CN1CC[C@H](c2c(O)cc(O)c3c(=O)cc(-c4ccccc4Cl)oc23)[C@H](O)C1 [Flavopiridol] | −23.63 | 
Nc1nc(F)nc2c1ncn2[C@@H]1O[C@H](COP(=O)(O)O)[C@@H](O)[C@@H]1O [Fludarabine Phosphate] |  | Score (sum of observed SD values for 18 genes): −11.05 SD
CC(C)C(=O)Nc1ccc([N+](=O)[O-])c(C(F)(F)F)c1 [Flutamide] | 3.96 | 
CC(C)n1c(/C=C/C(O)CC(O)CC(=O)O)c(-c2ccc(F)cc2)c2ccccc21 (stereo not drawn) [Fluvastatin] | −20.51 | 
C[C@]12CCC(=O)C(O)=C1CC[C@@H]1[C@@H]2CC[C@]2(C)C(=O)CC[C@@H]12 [Formestane] | −14.97 | 
COc1cc(Nc2ncc(F)c(Nc3ccc4c(n3)N(COP(=O)(O)O)C(=O)C(C)(C)O4)n2)cc(OC)c1OC [Fostamatinib] | −4.27 | 
O=c1[nH]c(=O)n(C2CCCO2)cc1F (stereo not drawn) [Ftorafur] | −9.75 | 
OCCn1cc(-c2ccc3c(c2)CC/C3=N\O)c(-c2ccncc2)n1 [GDC - 0879] | 23.19 | 
CS(=O)(=O)N1CCN(Cc2cc3nc(-c4cccc5[nH]ncc45)nc(N4CCOCC4)c3s2)CC1 [GDC-0941] | -58.02 | synergy / antagonism of drug with gene knockdowns, in words (OVCAR-8, drug 100 nM): synergy to the vast majority of genes
C[C@@H](Oc1cc(-n2cnc3ccc(CN4CCN(C)CC4)cc32)sc1C(N)=O)c1ccccc1C(F)(F)F [GSK461364] | 4.65 | 
O=C(O)c1ccc(-c2c[nH]c3ncc(-c4ccccc4)cc23)cc1C1CCCC1 [GSK650394] | 12.12 | 

Compound | Score (sum of observed SD values for 18 genes) [1] [SD] | other results
CCc1cc(Nc2nccc(-c3c(-c4ccc(OC)c(C(=O)Nc5c(F)cccc5F)c4)nc4ccccn34)n2)c(OC)cc1N1CCC(N2CCN(S(C)(=O)=O)CC2)CC1 [GSK1904529A] | −10.83 | 
COc1ncc(-c2ccc3nccc(-c4ccnnc4)c3c2)cc1NS(=O)(=O)c1ccc(F)cc1F [GSK2126458] | −22.4 | 
Cl.O=C(O)Cc1cccc(OCCCN(Cc2cccc(C(F)(F)F)c2Cl)CC(c2ccccc2)c2ccccc2)c1 [GW3965 HCI] | −11.35 | 
CC(C)c1onc(-c2c(Cl)cccc2Cl)c1COc1ccc(/C=C/c2cccc(C(=O)O)c2)c(Cl)c1 [GW4064] | −12.2 | 
CC(C)c1cc(-c2n[nH]c(=O)n2-c2ccc3c(ccn3C)c2)c(O)cc1O [Ganetespib] | 8.4 | 
COC1=C2C[C@@H](C)C[C@H](OC)[C@H](O)[C@@H](C)/C=C(\C)[C@H](OC(N)=O)[C@@H](OC)/C=C\C=C(/C)C(=O)NC(=CC1=O)C2=O [Geldanamycin] | 4.47 | 
Cl.Nc1ccn([C@@H]2O[C@H](CO)[C@@H](O)C2(F)F)c(=O)n1 [Gemcitibine HCI] | 35.88 | 
Nc1ccn([C@@H]2O[C@H](CO)[C@@H](O)C2(F)F)c(=O)n1 [Gemcitibine] | 34.12 | 
Cc1cc2c(C(C)C)c(O)c(O)c(C=O)c2c(O)c1-c1c(C)cc2c(C(C)C)c(O)c(O)c(C=O)c2c1O [Gossypol] | −13.34 | 
C[C@]12CCC(=O)C=C1CC[C@@H]1[C@@H]2[C@@H](O)C[C@@]2(C)[C@H]1CC[C@]2(O)C(=O)CO [Hydrocortisone] | −21.54 | 
Cc1ccccc1-n1c(Cn2cnc3c(N)ncnc32)nc2cccc(C)c2c1=O [IC - 87114] | 14.65 | 
CC(C)n1nc(-c2ccc3oc(N)nc3c2)c2c(N)ncnc21 [INK 128] | −44.98 | 
C=CC(=O)N1CCC[C@@H](n2nc(-c3ccc(Oc4ccccc4)cc3)c3c(N)ncnc32)C1 [Ibrutinib] | -58.62 | 
NC(=O)c1ccc(I)c([N+](=O)[O-])c1 [Iniparib] | −21.58 | 
CCc1c2c(nc3ccc(OC(=O)N4CCC(N5CCCCC5)CC4)cc13)-c1cc3c(c(=O)n1C2)COC(=O)[C@]3(O)CC.Cl [Irinotecan HCI] | −7.65 | 
CCc1c2c(nc3ccc(OC(=O)N4CCC(N5CCCCC5)CC4)cc13)-c1cc3c(c(=O)n1C2)COC(=O)[C@]3(O)CC [Irinotecan] | −36.08 | 
Cc1ccc(C(=O)N(CCCN)[C@@H](c2nc3cc(Cl)ccc3c(=O)n2Cc2ccccc2)C(C)C)cc1 [Ispinesib] | 1.22 | 
CCC(C)n1ncn(-c2ccc(N3CCN(c4ccc(OCC5COC(Cn6cncn6)(c6ccc(Cl)cc6Cl)O5)cc4)CC3)cc2)c1=O (stereo not drawn) [Itraconazole] | −13.51 | 
